# Results reported in patent US10550105B2 (Ribon Therapeutics Inc., priority 2018, dated 2020).
# Target: PARP7 (Homo sapiens (Human), UniProt Q7Z3E1)
# Assay: Enzymatic assay for inhibition of PARP7: TR-FRET displacement of biotinylated Probe A from the TIPARP active site
# Type: binding
# Conditions: Table A-1
# Method in brief: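 Titrated compounds compete with the biotinylated probe; after an additional 30 min incubation at 25° C, time-delayed fluorescence (90 μs) is measured. Inhibition curves use a Hill coefficient that normally floats but may be held at 1.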
# PARP7, sequence (Q7Z3E1 whole entry): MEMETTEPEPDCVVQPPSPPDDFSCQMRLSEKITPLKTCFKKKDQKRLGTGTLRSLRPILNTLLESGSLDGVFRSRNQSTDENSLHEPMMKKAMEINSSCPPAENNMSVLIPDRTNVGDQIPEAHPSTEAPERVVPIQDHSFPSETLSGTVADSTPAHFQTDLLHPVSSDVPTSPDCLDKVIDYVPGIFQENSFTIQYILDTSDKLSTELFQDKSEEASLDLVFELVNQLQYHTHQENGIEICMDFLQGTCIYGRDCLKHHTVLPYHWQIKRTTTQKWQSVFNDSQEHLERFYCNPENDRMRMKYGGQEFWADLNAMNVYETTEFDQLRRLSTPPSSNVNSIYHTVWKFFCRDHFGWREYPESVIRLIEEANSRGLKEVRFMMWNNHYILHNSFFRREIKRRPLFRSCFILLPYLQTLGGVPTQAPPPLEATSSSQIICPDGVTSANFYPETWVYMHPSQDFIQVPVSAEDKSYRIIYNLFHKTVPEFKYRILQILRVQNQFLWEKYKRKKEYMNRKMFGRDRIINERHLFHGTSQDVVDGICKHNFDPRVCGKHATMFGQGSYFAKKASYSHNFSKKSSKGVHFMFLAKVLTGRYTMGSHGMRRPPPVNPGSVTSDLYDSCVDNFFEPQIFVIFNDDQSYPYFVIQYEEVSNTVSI
row,SMILES,IC50
1,"O=C(c1cccc(OC[C@@H]2c3ccccc3CN2c2cn[nH]c(=O)c2C(F)(F)F)c1)N1CCN(c2ncc(C(F)(F)F)cn2)CC1 [Example 390, (S)-4-(Trifluoromethyl)-5-(1-((3-(4-(5-(trifluoromethyl)pyrimidin-2-yl)piperazine-1-carbonyl)phenoxy)methyl)isoindolin-2-yl)pyridazin-3(2H)-one]",< 100 nM
2,"O=C(c1cccc(OC[C@H]2c3ccccc3CN2c2cn[nH]c(=O)c2C(F)(F)F)c1)N1CCN(c2ncc(C(F)(F)F)cn2)CC1 [Example 391, (R)-4-(Trifluoromethyl)-5-(1-((3-(4-(5-(trifluoromethyl)pyrimidin-2-yl)piperazine-1-carbonyl)phenoxy)methyl)isoindolin-2-yl)pyridazin-3(2H)-one]",≥ 1000 nM
3,"O=C(c1cncc(OC[C@H]2c3ccccc3CN2c2cn[nH]c(=O)c2C(F)(F)F)c1)N1CCN(c2ncc(C(F)(F)F)cn2)CC1 [Example 393, (R)-4-(Trifluoromethyl)-5-(1-(((5-(4-(5-(trifluoromethyl)pyrimidin-2-yl)piperazine-1-carbonyl)pyridin-3-yl)oxy)methyl)isoindolin-2-yl)pyridazin-3(2H)-one]",100 to 1000 nM
4,"N#Cc1ccc(NCCC(=O)Nc2cccc(OCC3c4ccccc4CN3c3cn[nH]c(=O)c3C(F)(F)F)c2)nc1 (stereo not shown) [Example 394, 3-((5-Cyanopyridin-2-yl)amino)-N-(3-((2-(6-oxo-5-(trifluoromethyl)-1,6-dihydropyridazin-4-yl)isoindolin-1-yl)methoxy)phenyl)propanamide]",< 100 nM
5,"O=C(c1cccc(OCC2c3ccccc3CN2c2cn[nH]c(=O)c2C(F)(F)F)c1)N1CCn2ncnc2C1 (stereo not shown) [Example 398, 5-(1-((3-(5,6,7,8-Tetrahydro-[1,2,4]triazolo[1,5-a]pyrazine-7-carbonyl)phenoxy)methyl)isoindolin-2-yl)-4-(trifluoromethyl)pyridazin-3(2H)-one]",< 100 nM
6,"O=C(c1cccc(OCC2c3ccccc3CN2c2cn[nH]c(=O)c2C(F)(F)F)c1)N1CCn2nncc2C1 (stereo not shown) [Example 399, 5-(1-((3-(4,5,6,7-Tetrahydro-[1,2,3]triazolo[1,5-a]pyrazine-5-carbonyl)phenoxy)methyl)isoindolin-2-yl)-4-(trifluoromethyl)pyridazin-3(2H)-one]",100 to 1000 nM
7,N#Cc1ccc(N2CCN(C(=O)c3ccc(OCc4cccc5c4CN(c4cn[nH]c(=O)c4C(F)(F)F)C5)cc3)CC2)nc1 [Example 400],< 100 nM
8,"N#Cc1ccc(N2CCN(C(=O)c3cccc(OCCc4cccc5c4CN(c4cn[nH]c(=O)c4C(F)(F)F)C5)c3)CC2)nc1 [Example 401, 6-(4-(3-(2-(2-(6-Oxo-5-(trifluoromethyl)-1,6-dihydropyridazin-4-yl)isoindolin-4-yl)ethoxy)benzoyl)piperazin-1-yl)nicotinonitrile]",< 100 nM
9,"O=C(c1cccc(OCC2c3ccccc3CN2c2cn[nH]c(=O)c2C(F)(F)F)c1)N1CCn2nccc2C1 (stereo not shown) [Example 404, 5-(1-((3-(4,5,6,7-Tetrahydropyrazolo[1,5-a]pyrazine-5-carbonyl)phenoxy)methyl)isoindolin-2-yl)-4-(trifluoromethyl)pyridazin-3(2H)-one]",100 to 1000 nM
10,"N#Cc1ccc(N2CCN(C(=O)CCCOCC3c4ccccc4CN3c3cn[nH]c(=O)c3C(F)(F)F)CC2)nc1 (stereo not shown) [Example 408, 6-(4-(4-((2-(6-Oxo-5-(trifluoromethyl)-1,6-dihydropyridazin-4-yl)isoindolin-1-yl)methoxy)butanoyl)piperazin-1-yl)nicotinonitrile]",< 100 nM
11,"N#Cc1ccc(N2CCN(C(=O)CCCOC[C@@H]3c4ccccc4CN3c3cn[nH]c(=O)c3C(F)(F)F)CC2)nc1 [Example 410, (S)-6-(4-(4-((2-(6-Oxo-5-(trifluoromethyl)-1,6-dihydropyridazin-4-yl)isoindolin-1-yl)methoxy)butanoyl)piperazin-1-yl)nicotinonitrile]",< 100 nM
12,"N#Cc1ccc(N2CCN(C(=O)CCOCC3c4ncccc4CN3c3cn[nH]c(=O)c3C(F)(F)F)CC2)nc1 (stereo not shown) [Example 412, 6-(4-(3-((6-(6-Oxo-5-(trifluoromethyl)-1,6-dihydropyridazin-4-yl)-6,7-dihydro-5H-pyrrolo[3,4-b]pyridin-7-yl)methoxy)propanoyl)piperazin-1-yl)nicotinonitrile]",< 100 nM
13,"N#Cc1ccc(N2CCN(C(=O)CCOC[C@@H]3c4ccccc4CN3c3cn[nH]c(=O)c3Cl)CC2)nc1 [Example 413, (S)-6-(4-(3-((2-(5-Chloro-6-oxo-1,6-dihydropyridazin-4-yl)isoindolin-1-yl)methoxy)propanoyl)piperazin-1-yl)nicotinonitrile]",< 100 nM
14,"O=C(CCOC[C@H]1c2ccccc2CN1c1cn[nH]c(=O)c1Cl)N1CCN(c2ncc(C(F)(F)F)cn2)CC1 [Example 416, (R)-4-Chloro-5-(1-((3-oxo-3-(4-(5-(trifluoromethyl)pyrimidin-2-yl)piperazin-1-yl)propoxy)methyl)isoindolin-2-yl)pyridazin-3(2H)-one]",100 to 1000 nM

# Second part, the compound after the results:
row,IC50,SMILES
1,< 100 nM,"O=C(c1cncc(OC[C@@H]2c3ccccc3CN2c2cn[nH]c(=O)c2C(F)(F)F)c1)N1CCN(c2ncc(C(F)(F)F)cn2)CC1 [Example 392, (S)-4-(Trifluoromethyl)-5-(1-(((5-(4-(5-(trifluoromethyl)pyrimidin-2-yl)piperazine-1-carbonyl)pyridin-3-yl)oxy)methyl)isoindolin-2-yl)pyridazin-3(2H)-one]"
2,< 100 nM,"N#Cc1cnc(N2CCN(C(=O)c3cncc(OC[C@@H]4c5ccccc5CN4c4cn[nH]c(=O)c4C(F)(F)F)c3)CC2)nc1 [Example 395, (S)-2-(4-(5-((2-(6-Oxo-5-(trifluoromethyl)-1,6-dihydropyridazin-4-yl)isoindolin-1-yl)methoxy)nicotinoyl)piperazin-1-yl)pyrimidine-5-carbonitrile]"
3,≥ 1000 nM,"N#Cc1cnc(N2CCN(C(=O)c3cncc(OC[C@H]4c5ccccc5CN4c4cn[nH]c(=O)c4C(F)(F)F)c3)CC2)nc1 [Example 396, (R)-2-(4-(5-((2-(6-Oxo-5-(trifluoromethyl)-1,6-dihydropyridazin-4-yl)isoindolin-1-yl)methoxy)nicotinoyl)piperazin-1-yl)pyrimidine-5-carbonitrile]"
4,< 100 nM,"N#Cc1ccc(N2CCN(C(=O)c3cccc(OCC4c5ncccc5CN4c4cn[nH]c(=O)c4C(F)(F)F)c3)CC2)nc1 (stereo not shown) [Example 397, 6-(4-(3-((6-(6-Oxo-5-(trifluoromethyl)-1,6-dihydropyridazin-4-yl)-6,7-dihydro-5H-pyrrolo[3,4-b]pyridin-7-yl)methoxy)benzoyl)piperazin-1-yl)nicotinonitrile]"
5,< 100 nM,"N#Cc1ccc(N2CCN(C(=O)c3ccc(OCCc4cccc5c4CN(c4cn[nH]c(=O)c4C(F)(F)F)C5)cc3)CC2)nc1 [Example 402, 6-(4-(4-(2-(2-(6-Oxo-5-(trifluoromethyl)-1,6-dihydropyridazin-4-yl)isoindolin-4-yl)ethoxy)benzoyl)piperazin-1-yl)nicotinonitrile]"
6,< 100 nM,"Cc1ccc(N2CCN(C(=O)c3cccc(OCC4c5ccccc5CN4c4cn[nH]c(=O)c4C(F)(F)F)c3)CC2)nc1 (stereo not shown) [Example 403, 5-(1-((3-(4-(5-Methylpyridin-2-yl)piperazine-1-carbonyl)phenoxy)methyl)isoindolin-2-yl)-4-(trifluoromethyl)pyridazin-3(2H)-one]"
7,< 100 nM,"CC(=O)N1CCN(C(=O)c2cccc(OCC3c4ccccc4CN3c3cn[nH]c(=O)c3C(F)(F)F)c2)CC1 (stereo not shown) [Example 405, 5-(1-((3-(4-Acetylpiperazine-1-carbonyl)phenoxy)methyl)isoindolin-2-yl)-4-(trifluoromethyl)pyridazin-3(2H)-one]"
8,≥ 1000 nM,"CC(=O)N1CCN(C(=O)c2cccc(OC[C@H]3c4ccccc4CN3c3cn[nH]c(=O)c3C(F)(F)F)c2)CC1 [Example 406, (R)-5-(1-((3-(4-Acetylpiperazine-1-carbonyl)phenoxy)methyl)isoindolin-2-yl)-4-(trifluoromethyl)pyridazin-3(2H)-one]"
9,< 100 nM,"CC(=O)N1CCN(C(=O)c2cccc(OC[C@@H]3c4ccccc4CN3c3cn[nH]c(=O)c3C(F)(F)F)c2)CC1 [Example 407, (S)-5-(1-((3-(4-Acetylpiperazine-1-carbonyl)phenoxy)methyl)isoindolin-2-yl)-4-(trifluoromethyl)pyridazin-3(2H)-one]"
10,100 to 1000 nM,"N#Cc1ccc(N2CCN(C(=O)CCCOC[C@H]3c4ccccc4CN3c3cn[nH]c(=O)c3C(F)(F)F)CC2)nc1 [Example 409, (R)-6-(4-(4-((2-(6-Oxo-5-(trifluoromethyl)-1,6-dihydropyridazin-4-yl)isoindolin-1-yl)methoxy)butanoyl)piperazin-1-yl)nicotinonitrile]"
11,< 100 nM,"N#Cc1ccc(N2CCN(C(=O)CCCOCC3c4ncccc4CN3c3cn[nH]c(=O)c3C(F)(F)F)CC2)nc1 (stereo not shown) [Example 411, 6-(4-(4-((6-(6-Oxo-5-(trifluoromethyl)-1,6-dihydropyridazin-4-yl)-6,7-dihydro-5H-pyrrolo[3,4-b]pyridin-7-yl)methoxy)butanoyl)piperazin-1-yl)nicotinonitrile]"
12,100 to 1000 nM,"N#Cc1ccc(N2CCN(C(=O)CCOC[C@H]3c4ccccc4CN3c3cn[nH]c(=O)c3Cl)CC2)nc1 [Example 414, (R)-6-(4-(3-((2-(5-Chloro-6-oxo-1,6-dihydropyridazin-4-yl)isoindolin-1-yl)methoxy)propanoyl)piperazin-1-yl)nicotinonitrile]"
13,< 100 nM,"O=C(CCOC[C@@H]1c2ccccc2CN1c1cn[nH]c(=O)c1Cl)N1CCN(c2ncc(C(F)(F)F)cn2)CC1 [Example 415, (S)-4-Chloro-5-(1-((3-oxo-3-(4-(5-(trifluoromethyl)pyrimidin-2-yl)piperazin-1-yl)propoxy)methyl)isoindolin-2-yl)pyridazin-3(2H)-one]"
14,100 to 1000 nM,"O=C(CCOC[C@@H]1c2ccccc2CN1c1cn[nH]c(=O)c1C(F)(F)F)N1CCNCC1 [Example 417, (S)-5-(1-((3-Oxo-3-(piperazin-1-yl)propoxy)methyl)isoindolin-2-yl)-4-(trifluoromethyl)pyridazin-3(2H)-one]"
